Values after ≈ are worked out from the molar mass of the structure shown. Where two headings read alike, the source gives them in different places. Blank lines part the entries; values can stand above or below the molecule they belong to.
Columns and labels:
corpus of stomach = test: Gastric cytoprotection effect (lesion length / ulcer index after oral 0.2N NaOH); format: in vivo; conditions: 1 h, 30 min before oral 0.2N NaOH, lesion measured one hour later, read-out: Gastric cytoprotection effect ED50 (dose reducing the sore to 50% of control)
Description: Gastric cytoprotection effect
Gastric cytoprotection effect was studied according to the method by A. Robert (Gastroenterology, 77(3), 443, (1979)). Thirty min. after oral administration of the compound according to the invention, 0.2N NaOH was orally applied to the animals.
One hour later, the animals were killed under anesthesia by chloroform. The stomach was removed and fixed in a solution of 5% formalin. After fixation, the stomach was cut along the greater curvature. A total length of the lesion appearing on the corpus of stomach was then measured and served as an ulcer index.
The dose of the compound which may reduce the sore to 50% of that of the control was designated as ED50.
The gastric cytoprotection effects of the compounds according to the invention, which is thus represented by ED50, are summarized in Table 1.

gastric acid secretion [1] = test: Inhibiting effect of gastric acid secretion, pylorus-ligated rat (Shay); format: in vivo; conditions: pylorus ligation, injected into duodenum, 5 hours
Protocol: (§1) Inhibiting effect of gastric acid secretion
Under anesthesia by ether, the abdomen of the rat was incised in its median and a pylorus was ligated with silk thread according to Shay (Gastroenterology 5, 43 (1945)). Simultaneously, the compound was injected into a duodenum of the rat and then the incision was closed.
Five hours later, the median-incision of the abdomen was again performed and the esophargus was ligated and then the whole stomach was removed.
The stomach was cut along a greater curvature and the contents thereof was transferred into a graduated centrifuge tube. After centrifugation at 3,000 rpm for 10 min., a volume of a gastric juice was measured and a part of its supernatant was titrated to pH 7 with 0.1N NaOH using a pH-stat (Radio meter).
The mean dose of the compounds which may reduce the volume of gastric juice (ml) and acidity (mEq/ml) of a group of five animals to 50% of that of the controls were designated respectively as ED50.

gastric acid secretion [2] = test: Inhibiting effect of gastric acid secretion, perfused stomach, pentagastrin-stimulated (Ghosh & Schild); format: in vivo, male SD rat; conditions: urethane-anesthetized SD rat, pentagastrin 0.05 μg/kg/min, injected through femoral vein; ratio of area index to that of PGE2
Protocol: as §1
A male SD rat was incised in the abdomen under anesthesia by urethane and the lumen of a stomach was perfused with a physiolosical saline solution through a double-cannula inserted into a lumen of the stomach. A pH of a draining gastric acid was monitored using a pH-meter (M. Ghosh, H. Schild, Br. J. Pharmacol. 13, 54 (1958)). The secretion of gastric acid was stimulated by a continuous infusion of the pentagastrin at a rate of 0.05 μg/kg/min. When the pH of gastric acid became stable value of about 4, the compound was injected through a femoral vein. As an index of the inhibiting effect of gastric acid secretion by the compound was calculated from the area surrounded by the curve drawn by the time course of the pH of gastric acid, from the point increase by the injection of the compound and to the point it came back to baseline. The index thus obtained was compared to that of PGE2 and a ratio therebetween was shown in Table 3, as a relative effect of the compound.

platelet aggregation [3] = test: Inhibiting effect of platelet aggregation (ADP-induced, human platelet-rich plasma); format: cell-based; conditions: human PRP, compound added one minute before ADP
Protocol: Inhibiting effect of platelet aggregation
The blood taken from a human median cubital vein was centrifuged at 800 rpm for 10 min. and a supernatant thereof was used as a platelet-rich plasma (PRP). An aliquot of PRP thus obtained was put into a small tube, to which […] (ADP) was added to induce platelet aggregation. The extent of aggregation was determined by detecting a change in turbidity of the aliquot by an apparatus for measuring platelet aggregation (Rika-Denki, Tokyo). The compound was added one minute before the addition of ADP. The concentration of the compound which may reduce the platelet aggregation, 50% of the control was designated as IC50.

[4] = system: blood pressure of the carotid; test: Hypotensive effect (carotid blood pressure, anesthetized rat); format: in vivo; conditions: chloralose-anesthetized Wistar male rat, injected via catheter connected to femoral artery; read-out: Hypotensive effect ED25 (dose reducing blood pressure by 25 mmHg)
Protocol: A catheter was inserted to a carotid of the Wistar male rat under chloralose anesthesia. Another end of the catheter was connected to a polygraph with a pressure-transducer to detect a blood pressure of the carotid. The compound was injected via catheter connected to a femoral artery. The dose of the compound which may reduce the blood pressure in an amount of 25 mmHg was designated as ED25.

platelet aggregation [5] = conditions: cited from earlier work
gastric acid secretion [6] = conditions: cited from earlier work
peripheral blood vessel = conditions: cited from earlier work
[7] = converted to 6-oxo PGF1α; cited from earlier work
[8] = cited from earlier work
[9] = acidity (mEq/ml) to 50% of controls, read-out: Inhibiting effect of gastric acid secretion ED50, Acidity
[10] = volume (ml) to 50% of controls, read-out: Inhibiting effect of gastric acid secretion ED50, Volume of the gastric juice

SMILES: O=C(O)COc1cccc2c1O[C@H]1C[C@@H](O)[C@H](/C=C/[C@@H](O)c3ccccc3Cl)[C@@H]21 (relative stereo) [Compound 281, 15-(o-chlorophenyl)-2,5,6,7,16,17,18,19,20-nonanor-4-oxa-4,8-inter-m-phenylene PGI2]
- ED50 (corpus of stomach): 2.4 µg/kg
- ED50 (gastric acid secretion [1]; [9]): 500 µg/kg
- ED50 (gastric acid secretion [1]; [10]): 460 µg/kg
- Inhibiting effect of gastric acid secretion, Relative effect (PGE2 = 1) (gastric acid secretion [2]): 10
- IC50 (platelet aggregation [3]): 0.82 ng/mL (≈ 1.97 nM)
- ED (25 mmHg) [4]: 0.14 µg/kg

SMILES: CCCOCC(C)(C)[C@H](O)/C=C/[C@@H]1[C@H]2c3cccc(OCC(=O)O)c3O[C@H]2C[C@H]1O (relative stereo) [Compound 309, 16,16-Dimethyl-20a-homo-2,5,6,7-tetranor-4,18-dioxa-4,8-inter-m-phenylene PGI2]
- ED50 (corpus of stomach): 7.47 µg/kg
- ED50 (gastric acid secretion [1]; [9]): 2010 µg/kg
- ED50 (gastric acid secretion [1]; [10]): 805 µg/kg
- Inhibiting effect of gastric acid secretion, Relative effect (PGE2 = 1) (gastric acid secretion [2]): 33
- IC50 (platelet aggregation [3]): 72 ng/mL (≈ 171 nM)
- ED (25 mmHg) [4]: 0.3 µg/kg

SMILES: CC#CCC(C)[C@H](O)/C=C/[C@@H]1[C@H]2c3cccc(OCC(=O)O)c3O[C@H]2C[C@H]1O (relative stereo) [Compound 321, 16-Methyl-2,5,6,7-tetranor-4-oxa-18,18,19,19-tetradehydro-4,8-inter-m-phenylene PGI2]
- ED50 (corpus of stomach): 0.5 µg/kg
- ED50 (gastric acid secretion [1]; [9]): 320 µg/kg
- ED50 (gastric acid secretion [1]; [10]): 120 µg/kg
- Inhibiting effect of gastric acid secretion, Relative effect (PGE2 = 1) (gastric acid secretion [2]): 41
- IC50 (platelet aggregation [3]): 0.33 ng/mL (≈ 0.854 nM)
- ED (25 mmHg) [4]: 0.22 µg/kg

SMILES: CCCCC[C@H](O)/C=C/[C@@H]1[C@H]2C/C(=C/CCCC(=O)O)O[C@H]2C[C@H]1O [PGI2, Prostaglandin I2]
- platelet aggregation-inhibiting activity (platelet aggregation [5]): potent
- gastric acid secretion-inhibiting activity (gastric acid secretion [6]): potent
- peripheral blood vessel-dilating activity (peripheral blood vessel): potent
- stability in neutral aqueous solutions [7]: extremely unstable
- duration of physiological activities in vivo [8]: only short duration
- stability in vivo [8]: unstable in vivo

Continued, in another order:

- IC50 (platelet aggregation [3]): 1.35 ng/mL (≈ 3.37 nM)
SMILES: O=C(O)COc1cccc2c1O[C@H]1C[C@@H](O)[C@H](/C=C/[C@@H](O)c3cccc(F)c3)[C@@H]21 (relative stereo) [Compound 274, 15-(m-fluorophenyl)-2,5,6,7,16,17,18,19,20-nonanor-4-oxa-4,8-inter-m-phenylene PGI2]
- ED50 (corpus of stomach): 9.6 µg/kg
- ED50 (gastric acid secretion [1]; [9]): 880 µg/kg
- ED50 (gastric acid secretion [1]; [10]): 260 µg/kg
- Inhibiting effect of gastric acid secretion, Relative effect (PGE2 = 1) (gastric acid secretion [2]): 12
- ED (25 mmHg) [4]: 0.053 µg/kg

- IC50 (platelet aggregation [3]): 0.79 ng/mL (≈ 1.75 nM)
SMILES: O=C(O)COc1cccc2c1O[C@H]1C[C@@H](O)[C@H](/C=C/[C@@H](O)c3cccc(C(F)(F)F)c3)[C@@H]21 (relative stereo) [Compound 278, 15-(m-trifluoromethylphenyl)-2,5,6,7,16,17,18,19,20-nonanor-4-oxa-4,8-inter-m-phenylene PGI2]
- ED50 (corpus of stomach): 3.1 µg/kg
- ED50 (gastric acid secretion [1]; [9]): 1100 µg/kg
- ED50 (gastric acid secretion [1]; [10]): 630 µg/kg
- Inhibiting effect of gastric acid secretion, Relative effect (PGE2 = 1) (gastric acid secretion [2]): 6.9
- ED (25 mmHg) [4]: 0.11 µg/kg

- IC50 (platelet aggregation [3]): 0.23 ng/mL (≈ 0.552 nM)
SMILES: O=C(O)COc1cccc2c1O[C@H]1C[C@@H](O)[C@H](/C=C/[C@@H](O)c3cccc(Cl)c3)[C@@H]21 (relative stereo) [Compound 285, 15-(m-chlorophenyl)-2,5,6,7,16,17,18,19,20-nonanor-4-oxa-4,8-inter-m-phenylene PGI2]
- ED50 (corpus of stomach): 3.5 µg/kg
- ED50 (gastric acid secretion [1]; [9]): 1200 µg/kg
- ED50 (gastric acid secretion [1]; [10]): 880 µg/kg
- Inhibiting effect of gastric acid secretion, Relative effect (PGE2 = 1) (gastric acid secretion [2]): 4.1
- ED (25 mmHg) [4]: 0.055 µg/kg

- IC50 (platelet aggregation [3]): 0.74 ng/mL (≈ 1.78 nM)
SMILES: O=C(O)COc1cccc2c1O[C@H]1C[C@@H](O)[C@H](/C=C/[C@@H](O)c3ccc(Cl)cc3)[C@@H]21 (relative stereo) [Compound 289, 15-(p-chlorophenyl)-2,5,6,7,16,17,18,19,20-nonanor-4-oxa-4,8-inter-m-phenylene PGI2]
- ED50 (corpus of stomach): 4 µg/kg
- ED50 (gastric acid secretion [1]; [9]): 970 µg/kg
- ED50 (gastric acid secretion [1]; [10]): 430 µg/kg
- Inhibiting effect of gastric acid secretion, Relative effect (PGE2 = 1) (gastric acid secretion [2]): 17
- ED (25 mmHg) [4]: 0.084 µg/kg

Source: US4775692A, “2,5,6,7-tetranor-4,8-inter-m-phenylene PGI2 derivatives” (Toray Industries, Inc., priority 1986, dated 1988)
